This is an account of results in patent publication US20110070190A1 (Roche Palo Alto LLC, priority 2009, published 2011).

Series [1] relates to HCV replicon cells (2209-23), genotype 1b replicon in human hepatoma Huh7 cells. Kind of series: HCV replicon assay (Renilla luciferase reporter). It counts as cell-based, HCV genotype 1b. Conditions: Hepatitis C virus, Huh-7, 72 h; 2209-23 cells, three days incubation. On the technique in general: Replicon systems follow genome replication, usually without infectious particles.

Series [2] concerns the target T1, HCV polymerase (NS5B570n-Con1) (Hepatitis C virus genotype 1b, UniProt Q9WMX2).
T1 construct: a 21 amino acid C-terminal deletion of full-length HCV polymerase; made in house; host or cells: E. coli BL21(DE3) pLysS, plasmid pET17b
Kind of series: HCV NS5B RNA polymerase activity (incorporation of radiolabeled nucleotide into acid insoluble RNA). It counts as biochemical, HCV Con1 strain. How it is done: The enzymatic activity of HCV polymerase (NS5B570n-Con1) was measured as the incorporation of radiolabeled nucleotide monophosphates into acid insoluble RNA products. Unincorporated radiolabeled substrate was removed by filtration and scintillant was added to the washed and dried filter plate containing radiolabeled RNA product. The amount of RNA product generated by NS5B570n-Con1 at the end of the reaction was directly proportional to the amount of light emitted by the scintillant.
The HCV polymerase used in the enzymatic activity assay is a 21 amino acid C-terminal deletion of full-length HCV polymerase derived from HCV Con1 strain, genotype 1b (GenBank accession number AJ242654) (NS5B570n-Con1). The NS5B570n-Con1 was sub-cloned downstream to the T7 promoter of the plasmid expression construct pET17b and transformed into E. coli strain BL21(DE3) pLysS for protein expression. A single colony was used to start an innoculum for a 10 L culture in LB media supplemented with 100 μg/mL ampicillin at 37° C. Protein expression was induced by the addition of 0.25 mM isopropyl-β-D-thiogalactopyranoside (IPTG) when the optical density of the culture at […] was 0.8. Induction of protein expression was carried out at 30° C. for 16 h after which the cells were harvested by centrifugation. NS5B570n-Con1 was purified to homogeneity using a three-column purification protocol including subsequent column chromatography on Ni-NTA, SP-Sepharose HP and Superdex 75 resins.
Enzymatic reactions in the presence of cIRES RNA template (see paragraph [00213]) contained 20 nM cIRES RNA, 20 nM NS5B570n-Con1 enzyme, 0.5 μCi of tritiated UTP (Perkin Elmer catalog no. TRK-412; specific activity: 30 to 60 Ci/mmol;), 1 μM each ATP, CTP, and GTP, 40 mM Tris-HCl pH 8.0, 40 mM NaCl, 4 mM DTT (dithiothreitol), 4 mM MgCl2, 5 μl of compound serial diluted in DMSO, and nuclease-free water to a final reaction volume of 50 μl. Enzymatic reactions in the presence of poly A RNA template (see paragraph [00213]) contained 20 nM Poly A:oligo(rU)16 premixed (see section 0004), 20 nM NS5B570n-Con1 enzyme, 1 μCi of tritiated UTP (Perkin Elmer catalog no. TRK-412; specific activity: 30 to 60 Ci/mmol), 40 mM Tris-HCl pH 8.0, 40 mM NaCl, 4 mM DTT (dithiothreitol), 4 mM MgCl2, 5 μl of compound serial diluted in DMSO, and nuclease-free water to a final reaction volume of 50 μl. Reaction mixtures were assembled in 96-well filter plates (cat #MADVN0B, Millipore Co.) and incubated for 2 h at 30° C. Reactions were stopped by addition of 10% final (v/v) trichloroacetic acid and incubated for 40 min at 4° C. Reactions were filtered, washed with 8 reaction volumes of 10% (v/v) trichloroacetic acetic acid, 4 reaction volumes of 70% (v/v) ethanol, air dried, and 25 μl of scintillant (Microscint 20, Perkin-Elmer) was added to each reaction well.
Two RNA templates were used to assay compounds described herein. The cIRES RNA template was 377 nucleotide long and consisted of a partial complementary sequence (36 nucleotides) of the core protein, followed by 341 nucleotide of the complementary sequence of the internal ribosome entry site. The poly A RNA template (GE Amersham catalog number 27-4110) was a homopolymeric RNA pre-annealed to a oligo(rU)16 primer at a molar ratio of 3-to-1 (primer-template).
The amount of light emitted from the scintillant was converted to counts per minute (CPM) on a Topcount® plate reader (Perkin-Elmer, Energy Range: Low, Efficiency Mode: Normal, Count Time: 1 min, Background Subtract: none, Cross talk reduction: Off).
Data was analyzed in Excel® (Microsoft®) and ActivityBase® (Idbs®). The reaction in the absence of enzyme was used to determine the background signal, which was subtracted from the enzymatic reactions. Positive control reactions were performed in the absence of compound, from which the background corrected activity was set as 100% polymerase activity. All data was expressed as a percentage of the positive control. […]

For a further series, the system named is HCV. To be noted: cited from earlier work.

The IC50 is the concentration at which inhibition is half-maximal. With `Cc1cc(N)n2nc(-c3ccc(-c4cc5c(s4)c(=O)ncn5Cc4ccc(Cl)cc4)cc3Cl)cc2n1` [Compound I-2, 6-[4-(7-Amino-5-methyl-pyrazolo[1,5-a]pyrimidin-2-yl)-3-chloro-phenyl]-1-(4-chloro-benzyl)-1H-thieno[3,2-d]pyrimidin-4-one], the IC50 in series [1] amounted to 4.1 nM; in series [2], 4 nM.
The matching figures for `Cc1ccc(Cn2cnc(=O)c3sc(-c4ccc(-c5cc6nc(C)cc(N)n6n5)cc4)cc32)cc1` [Compound I-38, 6-[4-(7-Amino-5-methyl-pyrazolo[1,5-a]pyrimidin-2-yl)-phenyl]-1-(4-methyl-benzyl)-1H-thieno[3,2-d]pyrimidin-4-one]: 47.2 nM and 210 nM.
For orientation: melting point means the temperature, or range, at which the solid turns liquid. Take `N#Cc1ccc(-c2cc3c(s2)c(=O)ncn3Cc2ccc(Cl)cc2)cc1` [Compound I-52, 4-[1-(4-Chloro-benzyl)-4-oxo-1,4-dihydro-thieno[3,2-d]pyrimidin-6-yl]-benzonitrile]: the melting point was over 300 °C. For the same molecule, the concentration for half-maximal inhibition (IC50) in series [2] came to 1600 nM.
With `O=c1ncn(Cc2ccc(Cl)cc2)c2cc(-c3ccc(OCc4ccncc4)cc3)sc12` [Compound I-58], the melting point is 257 to 259 °C. For the same molecule, in series [2], inhibition was half-maximal at 49 nM (IC50).
For the molecule `NC(=O)c1ncn([C@@H]2O[C@H](CO)[C@@H](O)[C@H]2O)n1` [ribavirin, 1-((2R,3R,4S,5R)-3,4-Dihydroxy-5-hydroxymethyl-tetrahydro-furan-2-yl)-1H-[1,2,4]triazole-3-carboxylic acid amide], in the series on HCV (monotherapy / sole treatment), the “effect on serum levels of HCV-RNA” value is “does not lower serum levels of HCV-RNA”. Also, the “patients with serum amino transferase levels reduced to normal” value in the series on HCV (monotherapy) is on record as 40%.
